Measurements published in PubChem BioAssay AID1963959 (Molecular Pharmacology Branch, DTP, NCI, 2024).
pIC50: −log10 of the molar value.

Test system: T-47D spheroids with HUVEC/MSC, viability
Assay: Anticancer human tumor T-47D cell line growth inhibition [PI3K];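 also: spheroids exposed to agents for seven days before reading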;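 as to viability, T/C: percent of DMSO vehicle control luminescence so 100% = untreated growth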
Settings: for pIC50: curve of first compound; for viability, T/C: stronger effect = lower value
Description: Combinatorial screen of targeted agents with the PI3K inhibitors inavolisib, alpelisib, duvelisib, and copanlisib in multi-cell type tumor spheroids
A high-throughput screen of multi-cell type tumor spheroids was designed to identify active combinations of targeted small molecules and PI3K pathway inhibitors. Complex spheroids include a stromal component modeled by human endothelial cells (HUVEC) and fibroblasts modeled by human mesenchymal stem cells (MSCs). The concentration ranges selected for each drug and investigational agent were based upon clinically achievable concentrations if the clinical Cmax of the agent was known.
Compounds. The drugs and investigational agents: inavolisib (NSC800729), alpelisib (NSC765974), duvelisib (NSC772469), copanlisib (NSC816437), ipatasertib (NSC767898), afuresertib (NSC778305), talazoparib (NSC767125), sapanisertib (NSC764658), selumetinib (NSC741078), tovorafenib (DAY101, NSC766906), vemurafenib (NSC761431), ravoxertinib (NSC781343), sotorasib (NSC818433), MRTX1133 (NSC 836407), abemaciclib (NSC 768073), palbociclib (NSC758247), venetoclax (NSC 766270), SY5609 (NSC837396), enzalutamide (NSC755605), and darolutamide (NSC825331), were obtained from the National Cancer Institute (NCI) Developmental Therapeutics Program Chemical Repository. The FDA-approved anticancer drug set is available from the NCI Developmental Therapeutics Program. […] The stock solutions were prepared in dimethyl sulfoxide (DMSO, Sigma-Aldrich, St. Louis, MO, cat. D2650) at 800-fold the tested concentration and stored at -70 degrees C prior to their use. All drugs and investigational agents were tested over a range starting from a high concentration at or near the clinical Cmax and decreasing in half-log increments. If the clinical Cmax for an agent had not been determined, the highest concentration tested was 10 microM.
Cell Culture. All cells were maintained in an incubator at 37 degrees C and 5% CO2 with 95% humidity. The PDC lines were cultured according to standard operating procedures established by the NCI PDMR (https://pdmr.cancer.gov/sops/default.htm). All PDCs were thawed and cultured in Matrigel-coated flasks prepared with a working solution of 1X Ham's F-12 nutrient mix, without supplementation (Invitrogen, Waltham, MA, cat. 11765054), 100 U/mL penicillin-streptomycin (Invitrogen, cat. 15140122), and 2.5% Matrigel (Corning Inc., Corning, NY, cat. 354248) for the first three passages. The 354836-022-R-J1-PDC, 475296-252-R-J1-PDC, and 997726-040-R-J2-PDC lines were cultured in 6A media, which includes advanced DMEM/F-12 (Thermo Fisher Scientific, cat. 12634028), 10 mM HEPES (Thermo Fisher Scientific, cat. 15630080), 1X GlutaMAX supplement (Thermo Fisher Scientific, cat. 35050061), 0.1 mg/mL primocin (InvivoGen, San Diego, CA, cat. ant-pm-2), 10% defined fetal bovine serum, heat inactivated (HyClone Laboratories Inc., Logan, UT, cat. SH30070.03HI), 50% L-WRN conditioned media (ATCC, cat. CRL-3276), 1.25 mM N-Acetyl-L-cysteine (Sigma-Aldrich, cat. A9165), 10 mM nicotinamide (Sigma-Aldrich, cat. N0636), 1X B-27 supplement (Thermo Fisher Scientific, cat. 17504044), 1X N-2 supplement (Thermo Fisher Scientific, cat. 17502048), and 10 microM Y-27632 dihydrochloride (Tocris Bioscience, Bristol, United Kingdom, cat. 1254). The 624824-186-R-J2-PDC line was cultured in 6C/Colon 1B media, which includes all 6A media components plus 50 ng/mL human EGF recombinant protein (Thermo Fisher Scientific, cat. PHG0311). […]

For `CC(C)n1nc(-c2ccc3oc(N)nc3c2)c2c(N)ncnc21` + COc1c(OCCCN2CCOCC2)ccc2c3n(c(=NC(=O)c4cnc(N)nc4)nc12)CCN3, the pIC50 (second compound 0.00316 µM) was 7.25, the pIC50 (second compound 0.01 µM) was 7.41 and the pIC50 (second compound 0.0316 µM) was 8.42. It also gave a pIC50 (second compound 0.1 µM) greater than 9.50, a pIC50 (second compound 0.316 µM) greater than 9.50 and a pIC50 (second compound 1 µM) greater than 9.50. The viability, T/C (second compound 0.00316 µM, first compound 0.000316 µM) was 103%, the viability, T/C (second compound 0.00316 µM, first compound 0.001 µM) was 82.3% and the viability, T/C (second compound 0.00316 µM, first compound 0.00316 µM) was 106%. The viability, T/C (second compound 0.00316 µM, first compound 0.01 µM) was 92.5%, the viability, T/C (second compound 0.00316 µM, first compound 0.0316 µM) was 77.6% and the viability, T/C (second compound 0.00316 µM, first compound 0.1 µM) was 23.1%. It also gave a viability, T/C (second compound 0.01 µM, first compound 0.000316 µM) of 103%, a viability, T/C (second compound 0.01 µM, first compound 0.001 µM) of 78.2% and a viability, T/C (second compound 0.01 µM, first compound 0.00316 µM) of 98.5%. It also gave a viability, T/C (second compound 0.01 µM, first compound 0.01 µM) of 78.3%, a viability, T/C (second compound 0.01 µM, first compound 0.0316 µM) of 57.7% and a viability, T/C (second compound 0.01 µM, first compound 0.1 µM) of 16.7%. For the same molecule, the viability, T/C (second compound 0.0316 µM, first compound 0.000316 µM) was 80.9%, the viability, T/C (second compound 0.0316 µM, first compound 0.001 µM) was 58% and the viability, T/C (second compound 0.0316 µM, first compound 0.00316 µM) was 52.1%. For the same molecule, the viability, T/C (second compound 0.0316 µM, first compound 0.01 µM) was 39.9%, the viability, T/C (second compound 0.0316 µM, first compound 0.0316 µM) was 29.8% and the viability, T/C (second compound 0.0316 µM, first compound 0.1 µM) was 7.95%. The viability, T/C (second compound 0.1 µM, first compound 0.000316 µM) was 46%, the viability, T/C (second compound 0.1 µM, first compound 0.001 µM) was 36.5% and the viability, T/C (second compound 0.1 µM, first compound 0.00316 µM) was 31.2%. For the same molecule, the viability, T/C (second compound 0.1 µM, first compound 0.01 µM) was 23.6%, the viability, T/C (second compound 0.1 µM, first compound 0.0316 µM) was 15.8% and the viability, T/C (second compound 0.1 µM, first compound 0.1 µM) was 2.05%. The viability, T/C (second compound 0.316 µM, first compound 0.000316 µM) was 14.4%, the viability, T/C (second compound 0.316 µM, first compound 0.001 µM) was 17.3% and the viability, T/C (second compound 0.316 µM, first compound 0.00316 µM) was 12.6%. For the same molecule, the viability, T/C (second compound 0.316 µM, first compound 0.01 µM) was 12.3%, the viability, T/C (second compound 0.316 µM, first compound 0.0316 µM) was 6.24% and the viability, T/C (second compound 0.316 µM, first compound 0.1 µM) was 0.85%. For the same molecule, the viability, T/C (second compound 1 µM, first compound 0.000316 µM) was 5.77%, the viability, T/C (second compound 1 µM, first compound 0.001 µM) was 4.9% and the viability, T/C (second compound 1 µM, first compound 0.00316 µM) was 6.77%. The viability, T/C (second compound 1 µM, first compound 0.01 µM) was 5.07%, the viability, T/C (second compound 1 µM, first compound 0.0316 µM) was 3.21% and the viability, T/C (second compound 1 µM, first compound 0.1 µM) was 1.6%.
